Data: paper PMC10056567, “Structural Insights into the Ligand–LsrK Kinase Binding Mode: A Step Forward in the Discovery of Novel Antimicrobial Agents” (Molecules, 2023)

Experiments:
LsrK (ecLsrK) [1] = target: T1, LsrK (ecLsrK) (Escherichia coli, UniProt P77432); assay: tryptophan fluorescence quenching, modified Stern-Volmer; type: binding; design: 530 residues; details: 0.1 uM LsrK, PBS pH 7.4, 25 °C
LsrK (ecLsrK) [2] = target: T1, LsrK (ecLsrK); assay: biochemical

T1 sequence (P77432 whole entry): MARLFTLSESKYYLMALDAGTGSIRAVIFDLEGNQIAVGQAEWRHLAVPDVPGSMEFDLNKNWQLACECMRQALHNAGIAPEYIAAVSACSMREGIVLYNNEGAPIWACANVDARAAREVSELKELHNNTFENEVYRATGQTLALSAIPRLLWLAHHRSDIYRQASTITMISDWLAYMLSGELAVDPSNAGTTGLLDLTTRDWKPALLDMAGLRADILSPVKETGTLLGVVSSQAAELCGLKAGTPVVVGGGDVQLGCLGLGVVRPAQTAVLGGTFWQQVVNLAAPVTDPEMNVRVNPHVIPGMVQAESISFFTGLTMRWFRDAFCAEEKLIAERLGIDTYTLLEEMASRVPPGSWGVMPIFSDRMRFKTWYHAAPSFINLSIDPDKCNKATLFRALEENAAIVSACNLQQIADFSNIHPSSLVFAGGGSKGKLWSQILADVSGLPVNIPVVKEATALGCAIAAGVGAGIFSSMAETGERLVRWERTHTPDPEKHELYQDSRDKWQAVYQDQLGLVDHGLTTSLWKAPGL

Kd (LsrK (ecLsrK) [1]) [nM]	SMILES	Kd (LsrK (ecLsrK) [2]) [nM]
190	COc1cc(C)cc2cc3c(c(O)c12)C(=O)CC[C@H]3O [(R)-ASME]	–
–	Nc1ncnc2c1ncn2[C@@H]1O[C@H](COP(=O)(O)OP(=O)(O)OP(=O)(O)O)[C@@H](O)[C@H]1O [ATP]	5070 ± 230
217 ± 8	Cc1cc(O)c(C=O)c2c1C(=O)Oc1c(COC(=O)/C=C/C(=O)O)c(O)c(C(=O)O)c(C)c1O2 [FP, fumarprotocetraric acid]	–
140	O=CC1=C(O)C=CCO1 [Hib-carbaldehyde, 5-hydroxy-2H-pyran-6-carbaldehyde]	–
78	COC(=O)[C@@H]1OC(=O)C[C@@]1(O)C(=O)OC [Hib-ester, dimethyl (2R,3S)-3-hydroxy-5-oxotetrahydrofuran-2,3-dicarboxylate]	–
